According to article doi:10.1101/2025.05.02.651913 (bioRxiv, 2025):
pIC50: −log10 of the molar value. Where two headings read alike, the source gives them in different places.

Columns and labels:
[1] = system: MPXV strain hMPXV/USA/MA001/2022 (Lineage B.1, Clade IIb); format: cell-based, Mpox virus (MPXV)
MPXV (2022 Clade IIb) [2] = format: cell-based, Mpox virus (MPXV)
vaccinia virus = conditions: cited from earlier work
cowpox virus = conditions: cited from earlier work
MPXV (2022 Clade IIb) [3] = experiment: microbe, parasite or virus in culture; format: cell-based, Mpox virus (MPXV); conditions: Monkeypox virus, read-out: IC50 (inhibition of MPXV infection)
in vitro = conditions: human
MPXV [4] = system: MPXV; set-up: species or system C57BL/6 mice; conditions: mouse, in vivo
MPXV [5] = conditions: cited from earlier work
MPXV [6] = conditions: in vivo; cited from earlier work
[7] = in vivo; cited from earlier work
MPXV [8] = format: cell-based, Mpox virus (MPXV)
MPXV Clade IIb = format: cell-based, Mpox virus (MPXV)
Mpox-related lesions = conditions: human, in vivo; cited from earlier work
[9] = human, in vivo; cited from earlier work
phospho-NF-κB = format: cell-based, human
phospho-STING = format: cell-based, human

Molecule: COc1ncc(-c2ccc3nccc(-c4ccnnc4)c3c2)cc1NS(=O)(=O)c1ccc(F)cc1F [GSK2126458, Omipalisib]
- Duplicate of Duplicate of Hits: No CPE [1]: 1
- antiviral activity at lower concentrations (MPXV (2022 Clade IIb) [2]): potent antiviral activity

Molecule: Cc1ccc(C(=O)Nc2ccc(CN3CCN(C)CC3)c(C(F)(F)F)c2)cc1C#Cc1cnc2[nH]ncc2c1 [GZD824, Olverembatinib (dimesylate)]
- Duplicate of Duplicate of Hits: No CPE [1]: 1
- antiviral activity at lower concentrations (MPXV (2022 Clade IIb) [2]): potent antiviral activity

Molecule: COc1cc2ncnc(Nc3ccc(F)c(Cl)c3)c2cc1OCCCN1CCOCC1 [Gefitinib]
- Duplicate of Duplicate of Hits: No CPE [1]: 1
- vaccinia virus replication (vaccinia virus): reduce vaccinia and cowpox virus replication
- cowpox virus replication (cowpox virus): reduce vaccinia and cowpox virus replication

Molecule: CC(C)n1nc(-c2ccc3oc(N)nc3c2)c2c(N)ncnc21 [INK-128, Sapanisertib]
- Duplicate of Duplicate of Hits: No CPE [1]: 1
- antiviral activity at lower concentrations (MPXV (2022 Clade IIb) [2]): potent antiviral activity
- pIC50 (MPXV (2022 Clade IIb) [3]): 7.57
- concentration at which toxicity was shown (VK2/E6E7 cells; human): 80 to 100 nM
- CC50 (in vitro): 353 nM

Molecule: CCNC(=O)N1CCc2cc(OC)c(OCCc3ccc(OC)c(N)c3)cc2C1c1ccc(OC)cc1C (centres unmarked) [KRAS inhibitor-10]
- Duplicate of Duplicate of Hits: No CPE [1]: 1
- skin inflammation and lesions at Day 3 (MPXV [4]): some low-grade inflammation and lesions
- skin inflammation and lesions at Day 12 (MPXV [4]): fully resolved
- CC50 (VK2/E6E7 cells): > 1000 nM
- nontoxic up to a concentration (VK2/E6E7 cells): ≤ 1000 nM

Molecule: CN(C)C/C=C/C(=O)Nc1cc2c(Nc3ccc(F)c(Cl)c3)ncnc2cc1OC(F)F.O=C(O)/C=C\C(=O)O.O=C(O)/C=C\C(=O)O [Mefatinib]
- Duplicate of Duplicate of Hits: No CPE [1]: 1
- antiviral activity at lower concentrations (MPXV (2022 Clade IIb) [2]): potent antiviral activity

Molecule: O=C(Nc1ccc([N+](=O)[O-])cc1Cl)c1cc(Cl)ccc1O [Niclosamide]
- Duplicate of Duplicate of Hits: No CPE [1]: 1
- viral inhibition compared to vehicle treatment (percent viral infectivity, Fig. 2B) (MPXV (2022 Clade IIb) [2]): strongest viral inhibition
- pIC50 (MPXV (2022 Clade IIb) [3]): 7.93
- concentration at which toxicity was shown (VK2/E6E7 cells; human): 80 to 100 nM
- CC50 (in vitro): 96.3 nM

Molecule: CCOc1cc2ncc(C#N)c(Nc3ccc(F)c(Cl)c3)c2cc1NC(=O)/C=C/CN(C)C [Pelitinib]
- Duplicate of Duplicate of Hits: No CPE [1]: 1
- antiviral activity at lower concentrations (MPXV (2022 Clade IIb) [2]): potent antiviral activity

Molecule: NC(=O)c1ncn([C@@H]2O[C@H](CO)[C@@H](O)[C@H]2O)n1 [Ribavirin]
- MPXV replication in vitro (MPXV [5]): block MPXV replication
- MPXV replication in mouse models (MPXV [6]): block MPXV replication
- adverse effect in humans [7]: severe bone marrow suppression

Molecule: O=C(Nc1ncc([N+](=O)[O-])s1)c1ccc([N+](=O)[O-])c(Cl)c1 [SM-7368]
- Duplicate of Duplicate of Hits: No CPE [1]: 1
- antiviral activity at lower concentrations (MPXV (2022 Clade IIb) [2]): potent antiviral activity
- viral protein in cell lysates (Western blot) (MPXV [8]): substantially reduced
- skin inflammation and lesions at Day 3 (MPXV [4]): some low-grade inflammation and lesions
- skin inflammation and lesions at Day 12 (MPXV [4]): fully resolved
- CC50 (VK2/E6E7 cells): > 1000 nM
- nontoxic up to a concentration (VK2/E6E7 cells): ≤ 1000 nM

Molecule: O=C(NN1C(=O)[C@@H]2[C@@H]3C=C[C@@H]([C@H]4C[C@@H]34)[C@@H]2C1=O)c1ccc(C(F)(F)F)cc1 [Tecovirimat]
- antiviral activity against MPXV Clade IIb (MPXV Clade IIb): did not exhibit strong antiviral activity
- time to resolution of Mpox-related lesions (Mpox-related lesions): did not reduce the time to resolution of Mpox-related lesions

Molecule: Nc1ccn(C[C@@H](CO)OCP(=O)(O)O)c(=O)n1 [cidofovir]
- serious side effects in clinical trials [9]: kidney toxicity

Molecule: IRAK4-IN-6
- Duplicate of Duplicate of Hits: No CPE [1]: 1
- viral protein in cell lysates (Western blot) (MPXV [8]): substantially reduced
- phospho-NF-κB expression (phospho-NF-κB): significantly increased
- phospho-STING expression (phospho-STING): significantly increased
- visible skin lesions or neutrophil infiltration (MPXV [4]): none of the mice in the IRAK4-IN-6-treated group had visible skin lesions or neutrophil infiltration
- CC50 (VK2/E6E7 cells): > 1000 nM
- nontoxic up to a concentration (VK2/E6E7 cells): ≤ 1000 nM

Molecule: PI3K/mTOR Inhibitor-11
- Duplicate of Duplicate of Hits: No CPE [1]: 1
- antiviral activity at lower concentrations (MPXV (2022 Clade IIb) [2]): potent antiviral activity
- CC50 (VK2/E6E7 cells): 421 nM
- concentration at which toxicity was shown (VK2/E6E7 cells): 80 to 100 nM
